Test results published in patent EP0891764B1, “Ethanolic solutions of N-pentadecanoylisoleucine and use thereof in cosmetics” (KASHIMA OIL COMPANY, priority 1997, dated 1999).

How the values were obtained:
[1] = system: male mice aged 8 weeks of C3H series; test: Hair growth (retrichogenous) test on depilated backs of mice, visual observation versus ethanol only; format: in vivo; set-up: key: ⓞ: rapid and excellent retrichogenous action; ○: rapid and good retrichogenous action; Δ: slow and slight retrichogenous action; settings: 1% by weight in ethanol, 0.1 mℓ applied to depilated back once a day over 3 weeks; visual comparison with ethanol only
From the text: The results are given also in Table 1. […] Table 1

[2] = Solubility in 70% ethanol at 10°C
Procedure: A group of eight male mice aged 8 weeks of C3H series with a body weight of 18 to 24g was subjected to depilation at a back portion thereof in a size of about 2× 3.5 cm. Then, each of the N-acylamino acid compounds as shown in Table 1 was dissolved in ethanol to a concentration of 1% by weight as a sample to be tested. Then 0.1 mℓ of the sample were applied to the depilated back portions of the mice once a day over a period of 3 weeks to visually observe the hair growth state. An evaluation was made of the hair growth effect by visually observing the state of trichogenous promotion in comparison with the back portions coated only with ethanol on the basis of the criterion in Table 1.

SMILES | Retrichogenous effect [1] | Solubility (w/w %) [2] [w/w %]
CCCCCCCCCCCCCCC(=O)N[C@@H](C)C(=O)O [Comp. Example 1, N-PDNY-L-alanine] | ⓞ | 0.8
CCCCCCCCCCCCCCC(=O)N[C@@H](CC(C)C)C(=O)O [Comp. Example 2, N-PDNY-L-leucine] | ⓞ | 2.1
CCCCCCCCCCCCCCC(=O)N[C@@H](CCSC)C(=O)O [Comp. Example 3, N-PDNY-L-methionine] | ⓞ | –
CCCCCCCCCCCCCCC(=O)N[C@H](C(=O)O)C(C)C [Comp. Example 4, N-PDNY-L-valine] | ⓞ | 2.5
CCCCCCCCCCCCCCC(=O)N[C@@H](Cc1ccccc1)C(=O)O [Comp. Example 5, N-PDNY-L-phenyl-alanine] | ⓞ | 3.7
CCCCCCCCCCCCCCC(=O)N[C@@H](Cc1ccc(O)cc1)C(=O)O [Comp. Example 6, N-PDNY-L-tyrosine] | ⓞ | 0.7
CCCCCCCCCCCCCCC(=O)N[C@@H](CC(=O)O)C(=O)O [Comp. Example 7, N-PDNY-L-asparatic acid] | ○ | 0.3
CCCCCCCCCCCCCCC(=O)N[C@H](C(=O)O)[C@@H](C)CC [Example 1, N-pentadecanoyl-L-isoleucine] | ⓞ | 4.0
